Measured values published in BindingDB's records for doi:10.1021/jm051296s (University of Southern California, 2006).

Target: Integrin alpha-V/beta-3 (Homo sapiens, UniProt P05106+P06756)
Assay: Inhibition of [125I]echistatin binding to integrin alphaVbeta3 receptor

Integrin alpha-V/beta-3, sequence (P05106 27-788 limits assumed): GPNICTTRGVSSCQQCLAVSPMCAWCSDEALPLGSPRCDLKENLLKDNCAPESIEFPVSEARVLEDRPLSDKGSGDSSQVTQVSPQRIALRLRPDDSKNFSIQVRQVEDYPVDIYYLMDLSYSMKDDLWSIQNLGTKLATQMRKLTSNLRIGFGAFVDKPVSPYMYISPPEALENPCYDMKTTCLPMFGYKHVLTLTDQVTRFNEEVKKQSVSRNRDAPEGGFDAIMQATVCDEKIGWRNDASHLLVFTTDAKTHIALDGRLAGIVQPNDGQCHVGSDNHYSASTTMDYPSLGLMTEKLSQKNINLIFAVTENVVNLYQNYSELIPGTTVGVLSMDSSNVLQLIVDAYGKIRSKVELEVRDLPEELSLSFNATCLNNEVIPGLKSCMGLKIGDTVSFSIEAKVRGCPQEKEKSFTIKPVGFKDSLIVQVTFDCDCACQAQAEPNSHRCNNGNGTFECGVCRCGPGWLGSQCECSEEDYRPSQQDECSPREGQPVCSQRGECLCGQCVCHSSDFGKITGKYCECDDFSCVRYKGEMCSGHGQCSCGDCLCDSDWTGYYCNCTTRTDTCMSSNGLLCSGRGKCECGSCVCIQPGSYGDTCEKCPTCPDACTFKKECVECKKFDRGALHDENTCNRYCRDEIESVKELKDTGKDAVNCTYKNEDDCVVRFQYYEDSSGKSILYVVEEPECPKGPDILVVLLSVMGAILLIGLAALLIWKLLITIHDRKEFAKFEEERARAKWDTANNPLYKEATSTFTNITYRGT
Integrin alpha-V/beta-3, sequence (P06756 31-889 limits assumed): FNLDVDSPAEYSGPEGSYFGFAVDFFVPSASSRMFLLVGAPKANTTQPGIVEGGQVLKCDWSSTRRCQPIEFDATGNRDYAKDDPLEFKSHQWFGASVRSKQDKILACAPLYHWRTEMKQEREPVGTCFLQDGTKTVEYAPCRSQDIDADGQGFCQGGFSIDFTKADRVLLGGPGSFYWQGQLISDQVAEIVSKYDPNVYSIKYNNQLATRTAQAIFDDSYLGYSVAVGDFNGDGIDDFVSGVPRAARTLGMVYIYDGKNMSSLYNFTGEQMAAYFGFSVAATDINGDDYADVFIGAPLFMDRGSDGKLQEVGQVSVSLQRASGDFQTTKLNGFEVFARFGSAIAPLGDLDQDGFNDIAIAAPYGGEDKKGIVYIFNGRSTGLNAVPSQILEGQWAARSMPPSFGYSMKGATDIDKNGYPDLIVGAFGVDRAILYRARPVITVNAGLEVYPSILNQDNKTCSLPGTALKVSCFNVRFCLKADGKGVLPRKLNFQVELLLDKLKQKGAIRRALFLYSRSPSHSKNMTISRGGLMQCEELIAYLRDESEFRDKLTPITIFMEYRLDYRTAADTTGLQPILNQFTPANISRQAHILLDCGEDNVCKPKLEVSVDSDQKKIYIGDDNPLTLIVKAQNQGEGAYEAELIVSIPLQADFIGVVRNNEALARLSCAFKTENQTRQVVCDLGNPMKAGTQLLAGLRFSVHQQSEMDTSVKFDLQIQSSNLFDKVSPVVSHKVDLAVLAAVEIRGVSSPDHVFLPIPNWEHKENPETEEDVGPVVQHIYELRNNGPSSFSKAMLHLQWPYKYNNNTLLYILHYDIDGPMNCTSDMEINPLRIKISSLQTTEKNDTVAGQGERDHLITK
Integrin alpha-V/beta-3, sequence (P06756 891-1048 limits assumed): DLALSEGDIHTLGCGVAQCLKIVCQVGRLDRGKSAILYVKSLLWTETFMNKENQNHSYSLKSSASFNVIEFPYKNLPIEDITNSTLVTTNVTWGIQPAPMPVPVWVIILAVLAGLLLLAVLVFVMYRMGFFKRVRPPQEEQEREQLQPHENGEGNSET

O=C(O)c1cccc(-c2ccc(CN=Nc3nc4nonc4nc3Nc3ccc(F)cc3)o2)c1 [3-(5-{[6-(4-fluoro-phenylamino)-[1,2,5]oxadiazolo[3,4-b]pyrazin-5-yl]-hydrazonomethyl}-furan-2-yl)-benzoic acid]
IC50: > 1 µM
